Source: ChEMBL document CHEMBL1909294, “Translating clinical findings into knowledge in drug safety evaluation--drug induced liver injury prediction system (DILIps)” (PLoS Comput Biol, 2011)

Assays:
[1] = test system: Hepatotoxicity;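 as to HepSE Combined Scores: combined hepatic side effect score as listed in the training data of the Drug Induced Liver Injury Prediction System (DILIps)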;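 as to HepSE cholecystitis: Cholecystitis-related hepatic side effect score drawn from the DILIps (drug-induced liver injury prediction) training data set; call rule not given here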;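 as to HepSE hepatic necrosis: score of hepatic side effects for hepatic necrosis, drawn from the training data of DILIps, a prediction system for drug-induced liver injury; call rule not given here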;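 as to HepSE jaundice: Jaundice-related hepatic side-effect score drawn from the training data of the DILIps (drug-induced liver injury prediction system); call rule not given here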;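 as to HepSE liver fatty: hepatic side effect score for fatty liver, taken from the DILIps training set for predicting drug-induced liver injury; call rule not given here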;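 as to HepSE liver function tests abnormal: hepatic side effect score taken from the DILIps (drug-induced liver injury prediction system) training data, here covering abnormal liver function test findings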
[2] = test system: Hepatotoxicity; remark: listed apart in the source;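 as to HepSE Combined Scores: combined hepatic side effect score as listed in the training data of the Drug Induced Liver Injury Prediction System (DILIps)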;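 as to HepSE cholecystitis: Cholecystitis-related hepatic side effect score drawn from the DILIps (drug-induced liver injury prediction) training data set; call rule not given here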;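 as to HepSE hepatic necrosis: score of hepatic side effects for hepatic necrosis, drawn from the training data of DILIps, a prediction system for drug-induced liver injury; call rule not given here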;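 as to HepSE jaundice: Jaundice-related hepatic side-effect score drawn from the training data of the DILIps (drug-induced liver injury prediction system); call rule not given here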;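 as to HepSE liver fatty: hepatic side effect score for fatty liver, taken from the DILIps training set for predicting drug-induced liver injury; call rule not given here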;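 as to HepSE liver function tests abnormal: hepatic side effect score taken from the DILIps (drug-induced liver injury prediction system) training data, here covering abnormal liver function test findings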
[3] = test system: Hepatotoxicity; remark: listed apart in the source;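 as to HepSE Combined Scores: combined hepatic side effect score as listed in the training data of the Drug Induced Liver Injury Prediction System (DILIps)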;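 as to HepSE cholecystitis: Cholecystitis-related hepatic side effect score drawn from the DILIps (drug-induced liver injury prediction) training data set; call rule not given here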;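 as to HepSE hepatic necrosis: score of hepatic side effects for hepatic necrosis, drawn from the training data of DILIps, a prediction system for drug-induced liver injury; call rule not given here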;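 as to HepSE jaundice: Jaundice-related hepatic side-effect score drawn from the training data of the DILIps (drug-induced liver injury prediction system); call rule not given here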;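 as to HepSE liver fatty: hepatic side effect score for fatty liver, taken from the DILIps training set for predicting drug-induced liver injury; call rule not given here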;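 as to HepSE liver function tests abnormal: hepatic side effect score taken from the DILIps (drug-induced liver injury prediction system) training data, here covering abnormal liver function test findings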
[4] = test system: Hepatotoxicity; remark: listed apart in the source;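 as to HepSE Combined Scores: combined hepatic side effect score as listed in the training data of the Drug Induced Liver Injury Prediction System (DILIps)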;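 as to HepSE cholecystitis: Cholecystitis-related hepatic side effect score drawn from the DILIps (drug-induced liver injury prediction) training data set; call rule not given here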;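 as to HepSE hepatic necrosis: score of hepatic side effects for hepatic necrosis, drawn from the training data of DILIps, a prediction system for drug-induced liver injury; call rule not given here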;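 as to HepSE jaundice: Jaundice-related hepatic side-effect score drawn from the training data of the DILIps (drug-induced liver injury prediction system); call rule not given here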;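 as to HepSE liver fatty: hepatic side effect score for fatty liver, taken from the DILIps training set for predicting drug-induced liver injury; call rule not given here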
[5] = test system: Hepatotoxicity; remark: listed apart in the source
[6] = test system: Hepatotoxicity; remark: listed apart in the source
[7] = test system: Hepatotoxicity; remark: listed apart in the source
[8] = test system: Hepatotoxicity; remark: listed apart in the source
[9] = test system: Hepatotoxicity; remark: listed apart in the source
[10] = test system: Hepatotoxicity; remark: listed apart in the source
[11] = test system: Hepatotoxicity; remark: listed apart in the source
[12] = test system: Hepatotoxicity; remark: listed apart in the source
[13] = test system: Hepatotoxicity; remark: listed apart in the source
[14] = test system: Hepatotoxicity; remark: listed apart in the source

| Compound | HepSE_hepatic necrosis [1] | HepSE_jaundice [2] | HepSE_Combined Scores [3] | HepSE_cholecystitis [4] | HepSE_liver fatty [5] | HepSE_bilirubinemia [6] | HepSE_liver function tests abnormal [7] | HepSE_hepatitis [8] | HepSE_hepatomegaly [9] | HepSE_cirrhosis [10] | HepSE_elevated liver function tests [11] | HepSE_hepatic failure [12] | HepSE_liver disease [13] | HepSE_cholelithiasis [14] |
| --- | --- | --- | --- | --- | --- | --- | --- | --- | --- | --- | --- | --- | --- | --- |
| CN1CCN2c3ncccc3Cc3ccccc3C2C1 (stereo not drawn) [MIRTAZAPINE] | 0 | 0 | 3 | 1 | 0 | 0 | 1 | 0 | 0 | 1 | 0 | 0 | 0 | 0 |
| CCCCC(C)(O)C/C=C/[C@H]1[C@H](O)CC(=O)[C@@H]1CCCCCCC(=O)OC (stereo partly drawn) [MISOPROSTOL] | 0 | 0 | 0 | 0 | 0 | 0 | 0 | 0 | 0 | 0 | 0 | 0 | 0 | 0 |
| Clc1ccc(C(c2ccccc2Cl)C(Cl)Cl)cc1 (stereo not drawn) [MITOTANE] | 0 | 0 | 0 | 0 | 0 | 0 | 0 | 0 | 0 | 0 | 0 | 0 | 0 | 0 |
| O=C1c2c(O)ccc(O)c2C(=O)c2c(NCCNCCO)ccc(NCCNCCO)c21 [MITOXANTRONE] | 0 | 1 | 2 | 0 | 0 | 0 | 0 | 1 | 0 | 0 | 0 | 0 | 0 | 0 |
| NC(=O)C[S+]([O-])C(c1ccccc1)c1ccccc1 (stereo not drawn) [MODAFINIL] | 0 | 0 | 0 | 0 | 0 | 0 | 0 | 0 | 0 | 0 | 0 | 0 | 0 | 0 |
| CCOC(=O)[C@H](CCc1ccccc1)N[C@@H](C)C(=O)N1Cc2cc(OC)c(OC)cc2C[C@H]1C(=O)O [MOEXIPRIL] | 0 | 0 | 1 | 0 | 0 | 0 | 0 | 1 | 0 | 0 | 0 | 0 | 0 | 0 |
| CCc1c(C)[nH]c2c1C(=O)C(CN1CCOCC1)CC2 (stereo not drawn) [MOLINDONE] | 0 | 0 | 0 | 0 | 0 | 0 | 0 | 0 | 0 | 0 | 0 | 0 | 0 | 0 |
| C[C@@H]1C[C@H]2[C@@H]3CCC4=CC(=O)C=C[C@]4(C)[C@@]3(Cl)[C@@H](O)C[C@]2(C)[C@@]1(O)C(=O)CCl [MOMETASONE] | 0 | 0 | 0 | 0 | 0 | 0 | 0 | 0 | 0 | 0 | 0 | 0 | 0 | 0 |
| Oc1ccc(OCc2ccccc2)cc1 [MONOBENZONE] | 0 | 0 | 0 | 0 | 0 | 0 | 0 | 0 | 0 | 0 | 0 | 0 | 0 | 0 |
| CC(C)(O)c1ccccc1CC[C@@H](SCC1(CC(=O)O)CC1)c1cccc(/C=C/c2ccc3ccc(Cl)cc3n2)c1 [MONTELUKAST] | 0 | 0 | 2 | 0 | 0 | 0 | 0 | 1 | 0 | 0 | 0 | 0 | 1 | 0 |
| CCOC(=O)Nc1ccc2c(c1)N(C(=O)CCN1CCOCC1)c1ccccc1S2 [MORICIZINE] | 0 | 1 | 2 | 0 | 0 | 0 | 0 | 1 | 0 | 0 | 0 | 0 | 0 | 0 |
| COc1c(N2C[C@@H]3CCCN[C@@H]3C2)c(F)cc2c(=O)c(C(=O)O)cn(C3CC3)c12 [MOXIFLOXACIN] | 0 | 1 | 5 | 0 | 0 | 1 | 1 | 1 | 0 | 0 | 0 | 1 | 0 | 0 |
| C/C(=C\C(=O)OCCCCCCCCC(=O)O)C[C@@H]1OC[C@H](C[C@@H]2O[C@H]2[C@@H](C)[C@H](C)O)[C@@H](O)[C@H]1O [MUPIROCIN] | 0 | 0 | 0 | 0 | 0 | 0 | 0 | 0 | 0 | 0 | 0 | 0 | 0 | 0 |
| COc1c(C)c2c(c(O)c1C/C=C(\C)CCC(=O)O)C(=O)OC2 [MYCOPHENOLIC ACID] | 0 | 1 | 5 | 0 | 0 | 1 | 1 | 1 | 0 | 0 | 0 | 0 | 1 | 0 |
| CCCCCCC(C)(C)c1cc(O)c2c(c1)OC(C)(C)C1CCC(=O)CC21 (stereo not drawn) [NABILONE] | 0 | 0 | 0 | 0 | 0 | 0 | 0 | 0 | 0 | 0 | 0 | 0 | 0 | 0 |
| COc1ccc2cc(CCC(C)=O)ccc2c1 [NABUMETONE] | 0 | 1 | 3 | 0 | 0 | 0 | 0 | 0 | 0 | 0 | 1 | 1 | 0 | 0 |
| CC(C)(C)NCC(O)COc1cccc2c1CC(O)C(O)C2 (stereo not drawn) [NADOLOL] | 0 | 0 | 0 | 0 | 0 | 0 | 0 | 0 | 0 | 0 | 0 | 0 | 0 | 0 |
